We go through one compound from US20170057838A1, “WATER CAPPING OF TAILINGS” (priority 2015, published 2017).

The series has as its system One-year old yellow perch. The series is described as follows: yellow perch gill structure after three weeks exposure. In kind it is in vivo. The settings on record: added to extract solution. The source says:
In an attempt to establish a causative link with chemical constituents of test pond water caps, laboratory tests examined the effect of exposure to a naphthenic acid extract from fresh WIP MFT release water on perch gill structure. […] Sulphate and naphthenic acids comprise two of the main constituents of concern in capping water and may act in concert to induce gill damage. The resulting reduced gill surface area likely led to restricted transport of both naphthenic acids and oxygen into the perch body. […] The gill aneurysms presumably occur because the outer layer of the gill has been damaged.

Regarding `O=S(=O)([O-])[O-].[Na+].[Na+]` [sodium sulphate], the “effect of addition to the naphthenic acid extract solution on gill toxicity” value is on record as “exacerbated the expression of toxicity”.
